Experiment [1] in a line: Inhibition of LPS induced IL-6 production in HMVEC cells. The conditions noted are these: Homo sapiens.
In experiment [2] the target is T1, Bromodomain-containing protein 4 (Homo sapiens, UniProt O60885). Briefly: Inhibition of BRD4 BD1 (unknown origin) by TR-FRET assay.
Experiment [3] has as its target T1, Bromodomain-containing protein 4. The experiment can be described thus: Inhibition of BRD4 BD2 (unknown origin) by TR-FRET assay.
Experiment [4] shares this target. Briefly: Inhibition of BRD4 BD1 (unknown origin).

Drawing on ChEMBL document CHEMBL5576078, “Discovery of a potent, orally available furopyridine derivative as a novel selective bromodomain and extra-terminal domain (BET)-first bromodomain (BD1) inhibitor” (Bioorg Med Chem Lett, 2024), this text covers IC50 for eight compounds.

In experiment [1], `Cc1sc2c(c1C)C(c1ccc(Cl)cc1)=N[C@@H](CC(=O)OC(C)(C)C)c1nnc(C)n1-2` registered an IC50 of 45 nM. In other words, the double-digit nanomolar range.

With `C[C@@H]1CN(S(C)(=O)=O)CCN1Cc1cc2c(=O)n(C)cc(-c3cccc(NS(C)(=O)=O)c3)c2o1`, the values for the IC50 in experiment [2] and in experiment [3] were 27 nM and 1500 nM, respectively.

Turning to `C[C@@H]1CN(S(C)(=O)=O)CCN1Cc1cc2c(=O)n(C)cc(-c3cc(NS(C)(=O)=O)ccc3OCC3CC3)c2o1`, the IC50 in experiment [2] worked out at 11 nM; in experiment [3], 20 nM.

`C[C@@H]1CN(S(C)(=O)=O)CCN1Cc1cc2c(=O)n(C)cc(-c3nc(Cl)c(Cl)n3CC3CCOCC3)c2o1`: the IC50 was 150 nM in experiment [2] and 8800 nM in experiment [3].

In the case of `C[C@@H]1CN(S(C)(=O)=O)CCN1Cc1cc2c(=O)n(C)cc(-c3nccnc3OCC3CC3)c2o1`, the IC50 in experiment [2] amounted to 18 nM; in experiment [3], 1600 nM.

As for `C[C@@H]1CN(S(C)(=O)=O)CCN1Cc1cc2c(=O)n(C)cc(-c3cc(Cl)nn3CC3CCOCC3)c2o1`, the IC50 in experiment [2] was found to be 180 nM; in experiment [3] it was 3600 nM.

For `C[C@@H]1CN(S(C)(=O)=O)CCN1Cc1cc2c(=O)n(C)cc(-c3nc(Cl)cn3CC3CCOCC3)c2o1`, the values for the IC50 in experiment [2] and in experiment [3] were 53 nM and above 10000 nM, respectively.

For the compound `CC(=O)Nc1cc(-c2cn(C)c(=O)c3cc(CN4CCN(S(C)(=O)=O)C[C@H]4C)oc23)ccn1`, the results for the IC50 in experiment [2], in experiment [3] and in experiment [4] were 63 nM, 650 nM and at most 100 nM, respectively.
